Assay results as given in patent US20220030868A1, “FUNGICIDAL HALOMETHYL KETONES AND HYDRATES” (FMC CORPORATION, priority 2018, published 2022).
Marks after values point to notes of the source that are not given here.

Key:
[1] = tested on: Puccinia recondita f. sp. tritici; assay: Test B: test suspension sprayed on wheat seedlings one day before inoculation with Puccinia recondita f. sp. tritici spores (wheat leaf rust), disease rating; format: in vivo; settings: 100 = 100% disease control, 0 = no control; for pest or weed control at 50 ppm: 50 ppm test suspension
Procedure, shortened: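 Wheat seedlings were sprayed to run-off with compound suspended in 50/50 acetone/water containing 250 ppm PEG400, then inoculated with P. recondita f. sp. tritici spores the next day. Plants were held 24 h in saturated air at 20 °C, then 6 days in a growth chamber at 20 °C. Disease control was rated 0–100% relative to controls, with some entries run at 50 or 10 ppm.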

Phakopsora pachyrhizi = assay: Test A: test suspension sprayed on soybean seedlings one day before inoculation with Phakopsora pachyrhizi spores (Asian soybean rust), visual disease rating; format: in vivo; settings: 100 = 100% disease control, 0 = no control; for pest or weed control at 50 ppm: 50 ppm test suspension
Procedure, shortened: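 Soybean seedlings were sprayed to run-off with test suspension (acetone 3% of volume, acetone/water 50/50, 250 ppm PEG400) and inoculated with rust spores one day later. Incubation: 24 h saturated atmosphere at 22° C, then 8 days growth chamber at 22° C; scores 0–100 relative to untreated controls.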

Uncinula necator = assay: Test C: test suspension sprayed on grape seedlings one day before inoculation with Uncinula necator spores (grape powdery mildew), disease rating; format: in vivo; settings: 100 = 100% disease control; for pest or weed control at 50 ppm / Test C rating (disease control): 50 ppm test suspension
Text: General protocol for preparing test suspensions for Tests A-C: the test compounds were first dissolved in acetone in an amount equal to 3% of the final volume and then suspended at the desired concentration (in ppm) in acetone and purified water (50/50 mix by volume) containing 250 ppm of the surfactant PEG400 (polyhydric alcohol esters). The resulting test suspensions were then used in Tests A-C. The test solution was sprayed to the point of run-off on grape seedlings. The following day the seedlings were inoculated with a spore suspension of Uncinula necator (the causal agent of grape powdery mildew) and incubated in a growth chamber at 20° C. for 12 days, after which time disease ratings were made. Results for Tests A-C are given in Table A. In the Table, a rating of 100 indicates 100% disease control and a rating of 0 indicates no disease control (relative to the controls). An asterisk “*” or a double asterisk “**” next to the rating value indicates a 50 ppm or 10 ppm test suspension was used, respectively. A dash (-) indicates the compound was not tested.

[2] = Phakopsora pachyrhizi, 10 ppm test suspension

SMILES	pest or weed control at 10 ppm ([1]; 10 ppm test suspension) [%]	pest or weed control at 10 ppm (Phakopsora pachyrhizi; [2]) [%]	pest or weed control at 50 ppm (Uncinula necator; Erysiphe necator) [%]	Test B rating (disease control) ([1]; 10 ppm test suspension) [%]	Test A rating (disease control) (Phakopsora pachyrhizi; 10 ppm test suspension) [%]	Test C rating (disease control) (Uncinula necator)	also measured
CCO/C(=C\Oc1ccc(Cn2cc(C(=O)OCc3ccccc3)cn2)cc1)C(F)(F)F [Compound 186, phenylmethyl 1-[[4-[[(1Z)-2-ethoxy-3,3,3-trifluoro-1-propen-1-yl]oxy]phenyl]methyl]-1H-pyrazole-4-carboxylate]	0	100	100	–	–	–	melting point: 63 to 67 °C
CCOC(=O)c1cnn(Cc2ccc(O/C=C(\OCC)C(F)(F)F)cc2)c1 [Compound 64, ethyl 1-[[4-[[(1Z)-2-ethoxy-3,3,3-trifluoro-1-propen-1-yl]oxy]phenyl]methyl]-1H-pyrazole-4-carboxylate]	–	–	–	–	–	–	pest or weed control at 250 ppm ([1]; 250 ppm test suspension): 99%; pest or weed control at 250 ppm (Phakopsora pachyrhizi; Phakopsora pachyrhizi, 250 ppm test suspension): 100%; pest or weed control at 10 ppm (Uncinula necator; Erysiphe necator, 10 ppm test suspension (double asterisk)): 100%
C#CCOC(=O)c1cnn(Cc2ccc(O/C=C(\OCC)C(F)(F)F)cc2)c1 [compound 185]	–	–	–	0	100	100* %	–
CCOC(=O)c1cnn(CCc2ccc(O/C=C(\OCC)C(F)(F)F)cc2)c1 [Compound 132, ethyl 1-[2-[4-[[(1Z)-2-ethoxy-3,3,3-trifluoro-1-propen-1-yl]oxy]phenyl]ethyl]-1H-pyrazole-4-carboxylate]	0	100	98	–	–	–	–
CCO/C(=C\Oc1ccc(Cn2cc(C(=O)OCCC#N)cn2)cc1)C(F)(F)F [compound 245]	–	–	–	0	100	98* %	–
CCCCOC(=O)c1cnn(Cc2ccc(O/C=C(\OCC)C(F)(F)F)cc2)c1 [Compound 218, butyl 1-[[4-[[(1Z)-2-ethoxy-3,3,3-trifluoro-1-propen-1-yl]oxy]phenyl]methyl]-1H-pyrazole-4-carboxylate]	0	100	100	–	–	–	–
O=C(NCC1CC1)c1csc(Cc2ccc(OCC3(C(F)(F)F)OCCO3)cc2)n1 [Compound 71, N-(cyclopropylmethyl)-2-[[4-[[2-(trifluoromethyl)-1,3-dioxolan-2-yl]methoxy]phenyl]-methyl]thiazole-4-carboxamide]	96	100	–	–	–	–	melting point: 88 to 92 °C
CCO/C(=C\Oc1ccc(Cn2cc(C(=O)OCC3CC3)cn2)cc1)C(F)(F)F [compound 220]	–	–	–	0	100	100* %	–
O=C(OCC1CC1)c1cnn(Cc2ccc(OCC3(C(F)(F)F)OCCO3)cc2)c1 [Compound 127, cyclopropylmethyl 1-[[4-[[2-(trifluoromethyl)-1,3-dioxolan-2-yl]methoxy]phenyl]methyl]-1H-pyrazole-4-carboxylate]	0	100	100	–	–	–	–
CCO/C(=C\Oc1ccc(Cc2ncc(C(=O)NCC(F)F)s2)cc1)C(F)(F)F [compound 276]	–	–	–	0	13	100* %	–
CCOC(=O)c1cnn(Cc2ccc(O/C=C(\OC(C)C)C(F)(F)F)cc2)c1 [compound 57]	–	–	–	–	–	100* %	Test B rating (disease control) ([1]; 250 ppm test suspension): 0%; Test A rating (disease control) (Phakopsora pachyrhizi; 250 ppm test suspension): 100%
CCOC(=O)c1cnn(Cc2cccc(O/C=C(\OCC)C(F)(F)F)c2)c1 [Compound 265, ethyl 1-[[3-[[(1Z)-2-ethoxy-3,3,3-trifluoro-1-propen-1-yl]oxy]phenyl]methyl]-1H-pyrazole-4-carboxylate]	–	–	100	–	–	–	pest or weed control at 50 ppm [1]: 0%; pest or weed control at 50 ppm (Phakopsora pachyrhizi; Phakopsora pachyrhizi): 100%
CCOC(=O)c1cnn(Cc2ccc(OCC3(C(F)(F)F)OCCO3)cn2)c1 [compound 124]	–	–	100	–	–	–	pest or weed control at 50 ppm [1]: 0%; pest or weed control at 50 ppm (Phakopsora pachyrhizi; Phakopsora pachyrhizi): 100%
CCO/C(=C\Oc1ccc(Cn2cc(C(=O)OCC(C)C)cn2)cc1)C(F)(F)F [compound 219]	–	–	–	0	100	100* %	–
CC#CCOC(=O)c1cnn(Cc2ccc(OCC3(C(F)(F)F)OCCO3)cc2)c1 [Compound 163, 2-butyn-1-yl 1-[[4-[[2-(trifluoromethyl)-1,3-dioxolan-2-yl]methoxy]phenyl]methyl]-1H-pyrazole-4-carboxylate]	0	100	100	–	–	–	–
N#CCCCOC(=O)c1cnn(Cc2ccc(OCC3(C(F)(F)F)OCCO3)cc2)c1 [Compound 171, 3-cyanopropyl 1-[[4-[[2-(trifluoromethyl)-1,3-dioxolan-2-yl]methoxy]phenyl]methyl]-1H-pyrazole-4-carboxylate]	0	100	99	–	–	–	–
CCO/C(=C\Oc1ccc(Cn2cc(C(=O)OCCCCl)cn2)cc1)C(F)(F)F [Compound 221, 3-chloropropyl 1-[[4-[[(1Z)-2-ethoxy-3,3,3-trifluoro-1-propen-1-yl]oxy]phenyl]methyl]-1H-pyrazole-4-carboxylate]	0	100	100	–	–	–	–
CCO/C(=C\Oc1ccc(Cn2cc(C(=O)OCC(C)=O)cn2)cc1)C(F)(F)F [compound 216]	–	–	–	0	100	100* %	–
